Test results published in PubChem BioAssay (NCI).
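Interpolation was linear, between the two tested concentrations surrounding the appropriate level; five concentrations were tested over 48 hours in 96-well plates. Here, GI50 denotes the concentration required for 50% inhibition of growth. TGI marks complete inhibition of growth.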

Legend:
Experiment in all cases: NCI anticancer screen, dose series, 48 h
CCRF-CEM leukemia = test system: CCRF-CEM leukemia
COLO 205 colon = test system: COLO 205 colon
K-562 leukemia = test system: K-562 leukemia
MALME-3M melanoma = test system: MALME-3M melanoma
MOLT-4 leukemia = test system: MOLT-4 leukemia
NCI-H226 lung = test system: NCI-H226 lung
OVCAR-4 ovarian = test system: OVCAR-4 ovarian
SF-539 CNS = test system: SF-539 CNS
U251 CNS = test system: U251 CNS
SR leukemia = test system: SR leukemia

SMILES: COc1ccc(C#Cc2ccccc2C#CCCCCO)cc1
- GI50 (CCRF-CEM leukemia): 23.5 µM
- TGI (CCRF-CEM leukemia): 53.8 µM
- GI50 (COLO 205 colon): 17.6 µM
- TGI (COLO 205 colon): 33.4 µM
- GI50 (K-562 leukemia): 21.9 µM
- TGI (K-562 leukemia): 43.9 µM
- GI50 (MALME-3M melanoma): 23 µM
- TGI (MALME-3M melanoma): 45.4 µM
- GI50 (MOLT-4 leukemia): 18.3 µM
- TGI (MOLT-4 leukemia): 39.2 µM
- GI50 (NCI-H226 lung): 17.3 µM
- TGI (NCI-H226 lung): 36.1 µM
- GI50 (OVCAR-4 ovarian): 11.2 µM
- TGI (OVCAR-4 ovarian): 28.1 µM
- GI50 (SF-539 CNS): 22.6 µM
- TGI (SF-539 CNS): 42.8 µM
- GI50 (U251 CNS): 12.7 µM
- TGI (U251 CNS): 25.3 µM

SMILES: N#C/C(=C\c1ccccc1O)C(N)=O
- TGI (CCRF-CEM leukemia): 83.1 µM
- TGI (COLO 205 colon): > 100 µM
- TGI (K-562 leukemia): > 100 µM
- TGI (MALME-3M melanoma): > 100 µM
- TGI (MOLT-4 leukemia): > 100 µM
- TGI (NCI-H226 lung): > 100 µM
- TGI (OVCAR-4 ovarian): > 100 µM
- TGI (SF-539 CNS): > 100 µM
- TGI (U251 CNS): > 100 µM

SMILES: O=C(c1ccc2ccccc2c1O)N1CCCCC1
- TGI (CCRF-CEM leukemia): > 100 µM
- TGI (COLO 205 colon): > 100 µM
- TGI (K-562 leukemia): 75.3 µM
- TGI (MOLT-4 leukemia): 59.3 µM
- TGI (NCI-H226 lung): > 100 µM
- TGI (OVCAR-4 ovarian): > 100 µM
- TGI (SF-539 CNS): > 100 µM
- TGI (U251 CNS): > 100 µM

SMILES: Cc1ccc(C)c(NC(=O)C(=O)CC(=O)C2CCOC2=O)c1 (stereo not given)
- TGI (CCRF-CEM leukemia): > 100 µM
- TGI (COLO 205 colon): > 100 µM
- TGI (K-562 leukemia): > 100 µM
- TGI (MALME-3M melanoma): > 100 µM
- TGI (NCI-H226 lung): > 100 µM
- TGI (OVCAR-4 ovarian): > 100 µM
- TGI (SF-539 CNS): > 100 µM
- TGI (U251 CNS): > 100 µM

SMILES: O=C(/C=C/c1ccc(B(O)O)cc1)/C=C/c1ccc(B(O)O)cc1
- GI50 (CCRF-CEM leukemia): 2.86 µM
- TGI (CCRF-CEM leukemia): 9.58 µM
- GI50 (COLO 205 colon): 2.21 µM
- TGI (COLO 205 colon): 4.83 µM
- GI50 (K-562 leukemia): 3.1 µM
- TGI (K-562 leukemia): > 100 µM
- GI50 (MALME-3M melanoma): 6.3 µM
- TGI (MALME-3M melanoma): 20.9 µM
- GI50 (MOLT-4 leukemia): 3.59 µM
- TGI (MOLT-4 leukemia): 66.3 µM
- GI50 (NCI-H226 lung): 3.23 µM
- TGI (NCI-H226 lung): 16.1 µM
- GI50 (OVCAR-4 ovarian): 11.4 µM
- TGI (OVCAR-4 ovarian): 24 µM
- GI50 (SF-539 CNS): 2.03 µM
- TGI (SF-539 CNS): 5.35 µM
- GI50 (U251 CNS): 2.82 µM
- TGI (U251 CNS): 10.4 µM

SMILES: O=[N+]([O-])c1ccc(Nc2ccccc2-c2ccccc2)c2nonc12
- GI50 (CCRF-CEM leukemia): 15.6 µM
- TGI (CCRF-CEM leukemia): > 72.2 µM
- GI50 (COLO 205 colon): 18.6 µM
- TGI (COLO 205 colon): 45.2 µM
- GI50 (K-562 leukemia): 18 µM
- TGI (K-562 leukemia): > 100 µM
- GI50 (MALME-3M melanoma): 5.2 µM
- TGI (MALME-3M melanoma): 29.1 µM
- GI50 (MOLT-4 leukemia): 20 µM
- TGI (MOLT-4 leukemia): 88.2 µM
- GI50 (NCI-H226 lung): 14 µM
- TGI (NCI-H226 lung): 40.5 µM
- GI50 (OVCAR-4 ovarian): 9.5 µM
- TGI (OVCAR-4 ovarian): > 100 µM
- GI50 (SF-539 CNS): 17 µM
- TGI (SF-539 CNS): 39.9 µM
- GI50 (U251 CNS): 13.4 µM
- TGI (U251 CNS): 29.3 µM

SMILES: Cc1cccc(C(=O)c2cccc3ccccc23)c1C(=O)O
- TGI (CCRF-CEM leukemia): > 100 µM
- TGI (COLO 205 colon): 80 µM
- TGI (K-562 leukemia): > 100 µM
- TGI (MALME-3M melanoma): > 100 µM
- TGI (MOLT-4 leukemia): > 100 µM
- TGI (NCI-H226 lung): > 100 µM
- TGI (OVCAR-4 ovarian): > 100 µM
- TGI (SF-539 CNS): > 100 µM
- TGI (U251 CNS): > 100 µM

SMILES: O=C(O)c1ccccc1Cc1ccco1
- TGI (COLO 205 colon): > 100 µM
- TGI (K-562 leukemia): > 100 µM
- TGI (MALME-3M melanoma): > 100 µM
- TGI (MOLT-4 leukemia): > 100 µM
- TGI (NCI-H226 lung): > 100 µM
- TGI (OVCAR-4 ovarian): > 100 µM
- TGI (SF-539 CNS): > 100 µM
- TGI (SR leukemia): > 100 µM
- TGI (U251 CNS): > 100 µM

SMILES: O=C(CC1=Nc2nnc(-c3nnc4n3C(=O)C(CC(=O)c3cccnc3)=N4)n2C1=O)c1cccnc1
- TGI (CCRF-CEM leukemia): > 100 µM
- TGI (COLO 205 colon): > 100 µM
- TGI (K-562 leukemia): > 100 µM
- TGI (MALME-3M melanoma): > 100 µM
- TGI (MOLT-4 leukemia): > 100 µM
- TGI (NCI-H226 lung): > 100 µM
- TGI (OVCAR-4 ovarian): > 100 µM
- TGI (SF-539 CNS): > 100 µM
- TGI (U251 CNS): > 100 µM

SMILES: O=C(c1ccccc1)c1c(NCC(O)CN2CCCC2)n(Cc2ccccc2)c(=O)n(Cc2ccccc2)c1=O (stereo not given)
- GI50 (CCRF-CEM leukemia): 24.3 µM
- TGI (CCRF-CEM leukemia): 63.6 µM
- GI50 (COLO 205 colon): 16.2 µM
- TGI (COLO 205 colon): 31.2 µM
- GI50 (K-562 leukemia): 23.9 µM
- TGI (K-562 leukemia): 99.1 µM
- GI50 (MOLT-4 leukemia): 19.7 µM
- TGI (MOLT-4 leukemia): > 100 µM
- GI50 (NCI-H226 lung): 18.6 µM
- TGI (NCI-H226 lung): 48.4 µM
- GI50 (OVCAR-4 ovarian): 23.9 µM
- TGI (OVCAR-4 ovarian): 57.1 µM
- GI50 (SF-539 CNS): 19.6 µM
- TGI (SF-539 CNS): 33.9 µM
- GI50 (U251 CNS): 16.1 µM
- TGI (U251 CNS): 29.6 µM

SMILES: COc1cccc([C@H]2CC(=O)c3cc4c(cc3N2)OCO4)c1
- GI50 (CCRF-CEM leukemia): 0.0586 µM
- TGI (CCRF-CEM leukemia): > 100 µM
- GI50 (COLO 205 colon): 0.0367 µM
- TGI (COLO 205 colon): 1.22 µM
- GI50 (MOLT-4 leukemia): 0.0316 µM
- TGI (MOLT-4 leukemia): 0.0821 µM
- GI50 (NCI-H226 lung): 0.226 µM
- TGI (NCI-H226 lung): > 100 µM
- TGI (OVCAR-4 ovarian): > 100 µM
- GI50 (SF-539 CNS): 0.084 µM
- GI50 (U251 CNS): 0.0491 µM
- TGI (U251 CNS): > 100 µM

SMILES: O=C1c2ccccc2C2(O)Nc3cc(O)ccc3C12O (stereo not given)
- TGI (CCRF-CEM leukemia): > 100 µM
- TGI (COLO 205 colon): > 100 µM
- TGI (K-562 leukemia): > 100 µM
- TGI (MALME-3M melanoma): > 100 µM
- TGI (MOLT-4 leukemia): > 100 µM
- TGI (NCI-H226 lung): > 100 µM
- TGI (OVCAR-4 ovarian): > 100 µM
- TGI (SF-539 CNS): > 100 µM
- TGI (U251 CNS): > 100 µM

SMILES: CC(C)(C)OC(=O)NCCNC1=CC(=O)c2nc3ccccc3c3ccnc1c23
- GI50 (COLO 205 colon): 12.7 µM
- TGI (COLO 205 colon): 34.7 µM
- GI50 (K-562 leukemia): 0.131 µM
- TGI (K-562 leukemia): > 100 µM
- GI50 (MALME-3M melanoma): 32 µM
- TGI (MALME-3M melanoma): 81.8 µM
- GI50 (NCI-H226 lung): 21.1 µM
- TGI (NCI-H226 lung): 52.8 µM
- GI50 (OVCAR-4 ovarian): 24.3 µM
- TGI (OVCAR-4 ovarian): 67.6 µM
- GI50 (SF-539 CNS): 20.2 µM
- TGI (SF-539 CNS): 40.5 µM
- GI50 (U251 CNS): 18.8 µM
- TGI (U251 CNS): 65 µM

SMILES: CN1C(=O)c2c(ccc3c2OCO3)C2C(O)Cc3cc4c(cc3C21)OCO4 (stereo not given)
- TGI (CCRF-CEM leukemia): 9.74 µM
- TGI (COLO 205 colon): 14.4 µM
- TGI (K-562 leukemia): 60.2 µM
- TGI (MOLT-4 leukemia): 20 µM
- TGI (NCI-H226 lung): 5.93 µM
- TGI (OVCAR-4 ovarian): > 100 µM
- TGI (SF-539 CNS): 16.8 µM
- TGI (U251 CNS): > 100 µM
